Key:
[1] = system: neural precursor cells from E14 rat cortices; assay: In vitro differentiation of Nurr1-transduced neural precursor cells into TH+ DA neurons; format: cell-based
Experimental: Error bars represent standard deviations.
Neural precursor cells (NPCs) from dissection of rat embryos days 14 cortices (E14) were proliferated in N2 medium supplemented with 20 ng/mL basic fibroblast growth factor (bFGF; R&D Systems, Minneapolis, Minn., USA). Following 3-4 days of bFGF-expansion, NPCs were dissociated in Ca^2+/Mg^2+-free Hank's balanced salt solution (CMF-HBSS, Invitrogen, Carlsbad, Calif.) and re-plated onto coverslips (12 mm diameter; Carolina Biological Supply Company, Burlington, N.C.) at 32,000 cells/coverslip pre-coated with poly-L-ornithine (PLO; […], Sigma, St Louis, Mo.) at 37° C. overnight followed by fibronectin (FN; […], Sigma) overnight. Prior to drug treatment, NPCs were transduced with Nurr1-expressing retrovirus of MOI 5 in the presence of polybrene (1 μg/ml, Sigma), cultured overnight in N2, and then differentiated. Getting started chemical treatment (every day for 2 hours), bFGF was not added anymore^3.
Cells were fixed in 4% paraformaldehyde (PFA) for 20 min, washed and then incubated with blocking buffer [PBS, 10% goat serum (Invitrogen), 0.3% Triton X-100 (Sigma)] for 1 hour. […] Following washes with PBS, appropriate fluorescence-tagged secondary antibodies (Jackson Immunoresearch Laboratories, West Grove, Pa.) were used for visualization. […]

[2] = system: primary cultures of rat mesencephalic DA neurons; assay: 6-OHDA-induced death in primary mesencephalic DA neurons (TH+ count, [3H]DA uptake); format: cell-based; details: number of TH+ neurons and DA uptake; 20 μM 6-OHDA for 24 hr
Nurr1 LBD = Nurr1 LBD (Mus musculus, UniProt Q06219); assay: Fluorescence quenching assay, Nurr1-LBD; format: binding; details: increasing amounts of AQ, 0.1 nM-1 μM
Sequence of Nurr1 LBD (Q06219 328-598): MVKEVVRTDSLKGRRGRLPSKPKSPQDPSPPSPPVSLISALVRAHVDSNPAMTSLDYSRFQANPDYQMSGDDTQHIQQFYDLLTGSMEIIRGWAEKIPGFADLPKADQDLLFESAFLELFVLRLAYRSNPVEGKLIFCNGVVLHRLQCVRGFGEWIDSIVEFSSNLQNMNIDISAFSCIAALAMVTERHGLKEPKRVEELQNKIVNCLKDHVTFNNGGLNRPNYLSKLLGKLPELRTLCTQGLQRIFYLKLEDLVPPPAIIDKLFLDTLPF
Experimental: Fluorescence spectra were measured using a SHIMADZU fluorescence spectrophotometer (model RF-5310PC, SHIMADZU). The proteins (15 ng/μl) were incubated with different concentrations of AQ or kanamycin (0.1 nM, 1 nM, 10 nM, 100 nM and 1 μM in PBS buffer, pH7.0). Protein quenching was monitored at 25° C. by using 5 nm of excitation and 5 nm of emission slit-width. The excitation wavelength was 280 nm, and the emission spectra were measured between 290 and 430 nm.

[3] = biological target: T1, Nurr1 LBD with SRC-1/SRC-3 (Mus musculus, UniProt Q06219); assay: Nurr1 LBD transactivation with VP16-SRC1/VP16-SRC3 overexpression; format: cell-based; details: 30 μM AQ or 100 μM CQ for 16 hours
T1 construct: The Nurr1 LBD fragment from amino acid position 328 to amino acid position 598 was PCR-amplified; expressed in transfected cells; host or cells: SK-N-BE(2)C human neuroblastoma cells
T1 sequence (Q06219 328-598): as above

- Nurr1 transcriptional function with SRC-1/SRC-3 overexpression [3]: further enhanced
Compound: CCN(CC)Cc1cc(Nc2ccnc3cc(Cl)ccc23)ccc1O [AQ, amodiaquine]
- number of TH+ neurons generated from neural stem cells [1]: enhanced
- mRNA expression levels of TH, DAT, VMAT and AADC genes ([1]; in vitro differentiation for 9 d): enhanced
- 6-OHDA-induced death in primary DA neurons [2]: significantly inhibit
- fluorescence quenching of Nurr1-LBD (Nurr1 LBD): fluorescence intensity gradually decreased

— patent publication US11026943B2, “Aminoquinoline derivatives and uses thereof” (UNIVERSITY OF DELHI, priority 2012, dated 2021)
